Test results taken from patent publication US20250381254A1, “Augmented Acid Alpha-Glucosidase For The Treatment Of Pompe Disease” (Amicus Therapeutics, Inc., priority 2015, published 2025).
Read-outs that look alike come from different tables or passages of the source.

How the values were obtained:
[1] = Clinical study: plasma miglustat PK; assay type: in vivo, human; conditions: for AUC0-∞/BW (geometric mean) / CL/F (arithmetic mean) / Cmax/BW (geometric mean) / βt1/2 (arithmetic mean) / AUC(0-t) / AUC(0-inf) / Cmax / Vd/F / Tmax: with 20 mg/kg ATB200; for AUC(0-t) / AUC(0-inf) / Cmax / Vd/F / Tmax: human, plasma, 20 mg/kg; for AUC(0-t): read-out: AUC0-t (geometric mean); for AUC(0-inf): read-out: AUC0-∞ (geometric mean); for Cmax: read-out: Cmax (geometric mean); for Vd/F: read-out: Vz/F (arithmetic mean); for Tmax: read-out: tmax (median)
Description: The study will be conducted in 2 stages.
• Safety: review of AEs, including SAEs and IARs; review of concomitant medications and nondrug therapies; vital signs (HR, RR, BP, and temperature); weight; PE; ECG; clinical safety laboratory assessments (serum chemistry, hematology, and urinalysis); and urine pregnancy test • PD: urinary Hex4 and serum CPK • Immunological: blood samples for anti-recombinant acid α-glucosidase antibody titers (anti-recombinant acid α-glucosidase total and neutralizing antibody titers, and antibody cross-reactivity with alglucosidase alfa) and blood samples for measurement of pro-inflammatory cytokines and other biomarkers of immune system activation. If needed, IgE measurements will also be performed. • Serial 24-hour PK: During Period 4 (Visit 6, Day 43 and Visit 8, Day 71) and Period 5 (Visit 9, Day 85 and Visit 11, Day 113), blood sampling for plasma acid α-glucosidase activity levels, total acid α-glucosidase protein concentrations, and miglustat concentrations will be taken for all subjects.
In Tables 12-15 and FIGS. 24-26, the single dose (SD) measurements were taken after a single administration of miglustat and ATB200, and the multiple dose (MD) measurements were taken after the third biweekly administration of miglustat and ATB200.

[2] = Population PK model of miglustat, oral dosing in Gaa knockout mice; assay type: in vivo, mouse; conditions: typical value
Method: A population PK model of miglustat is constructed based on oral dosing in Gaa knockout (KO) mice. The model has a residual additive error of 0.475 ng/m L.

[3] = target: ATB200 (Homo sapiens, UniProt P10253, H199R/R223H/V780I); test: Unfolding of ATB200 protein vs. temperature with and without miglustat (FIG. 1); assay type: physicochemical; conditions: various pH
Description: Without being bound by theory, it is believed that miglustat acts as a pharmacological chaperone for the recombinant human acid α-glucosidase ATB200 and binds to its active site. […] However, the binding of miglustat to the active site of ATB200 also can result in inhibition of the enzymatic activity of ATB200 by preventing the natural substrate, glycogen, from accessing the active site.

[4] = Previous studies in non-human primates (exposure); conditions: in vivo, po, 175 mg/kg
[5] = 130 mg miglustat, multiple dose
[6] = oral, 130 mg miglustat, multiple dose
[7] = oral, 130 mg miglustat, single dose
[8] = oral, 260 mg miglustat, single dose

CCCCN1C[C@H](O)[C@@H](O)[C@H](O)[C@H]1CO [miglustat, (2R,3R,4R,5S)-1-butyl-2-(hydroxymethyl)piperidine-3,4,5-triol]
dose proportionality of kinetics ([1]; 130 mg and 260 mg): dose-proportional kinetics | AUC0-∞/BW (geometric mean) [1, 5]: 142 ng·h/mL/kg | CL/F (arithmetic mean) [1, 5]: 10.8 L/h | Cmax/BW (geometric mean) [1, 5]: 16.3 ng/mL/kg | βt1/2 (arithmetic mean) [1, 5]: 5.6 h | AUC0-∞/BW (geometric mean) ([1]; 130 mg miglustat, single dose): 154 ng·h/mL/kg | CL/F (arithmetic mean) ([1]; 130 mg miglustat, single dose): 9.93 L/h | Cmax/BW (geometric mean) ([1]; 130 mg miglustat, single dose): 19.2 ng/mL/kg | βt1/2 (arithmetic mean) ([1]; 130 mg miglustat, single dose): 4.5 h | AUC0-∞/BW (geometric mean) ([1]; 260 mg miglustat, single dose): 325 ng·h/mL/kg | CL/F (arithmetic mean) ([1]; 260 mg miglustat, single dose): 9.51 L/h | Cmax/BW (geometric mean) ([1]; 260 mg miglustat, single dose): 41.5 ng/mL/kg | βt1/2 (arithmetic mean) ([1]; 260 mg miglustat, single dose): 5.5 h | AUC(0-t) [1, 6]: 11500 ng·h/mL | AUC(0-inf) [1, 6]: 12200 ng·h/mL | Cmax [1, 6]: 1390 ng/mL | Vd/F [1, 6]: 88.1 L | Tmax [1, 6]: 3 h | AUC(0-t) [1, 7]: 12600 ng·h/mL | AUC(0-inf) [1, 7]: 13200 ng·h/mL | Cmax [1, 7]: 1650 ng/mL | Vd/F [1, 7]: 65.4 L | Tmax [1, 7]: 2.75 h | AUC(0-t) [1, 8]: 26600 ng·h/mL | AUC(0-inf) [1, 8]: 28000 ng·h/mL | Cmax [1, 8]: 3550 ng/mL | Vd/F [1, 8]: 79.2 L | Tmax [1, 8]: 2.75 h | time of peak plasma concentrations into the ATB200 infusion ([1]; oral, 1 hour prior to ATB200 infusion): 2 h | Central volume of distribution (Vc) [2]: 4.55 mL | Peripheral clearance (CLd) [2]: 4.57 mL/h | Peripheral volume of distribution (V2) [2]: 19.6 mL | Rate constant of absorption (Ka) [2]: 2.09 h⁻¹ | Systemic clearance (CL) [2]: 43.3 mL/h | percentage of unfolded ATB200 protein [3]: decrease the percentage of unfolded ATB200 protein | AUC [4]: 196000 ng·h/mL
